Test results taken from patent US9481676B2, “Azepino[4,5-B]indoles and methods of use” (Medivation Technologies, Inc., priority 2008, dated 2016).

Columns and labels:
[1] = target: T1, human recombinant serotonin (5-Hydroxytryptamine) 5-HT2C receptor (Homo sapiens, UniProt P28335); assay: Serotonin 5-HT2C radioligand binding ([3H]Mesulergine); conditions: compound at 1 μM; read-out: Serotonin (1 μM) 5-HT2C, percent inhibition of specific binding
T1 construct: expressed in transfected cells; host or cells: CHO-K1 cells
T1 sequence (P28335 33-458): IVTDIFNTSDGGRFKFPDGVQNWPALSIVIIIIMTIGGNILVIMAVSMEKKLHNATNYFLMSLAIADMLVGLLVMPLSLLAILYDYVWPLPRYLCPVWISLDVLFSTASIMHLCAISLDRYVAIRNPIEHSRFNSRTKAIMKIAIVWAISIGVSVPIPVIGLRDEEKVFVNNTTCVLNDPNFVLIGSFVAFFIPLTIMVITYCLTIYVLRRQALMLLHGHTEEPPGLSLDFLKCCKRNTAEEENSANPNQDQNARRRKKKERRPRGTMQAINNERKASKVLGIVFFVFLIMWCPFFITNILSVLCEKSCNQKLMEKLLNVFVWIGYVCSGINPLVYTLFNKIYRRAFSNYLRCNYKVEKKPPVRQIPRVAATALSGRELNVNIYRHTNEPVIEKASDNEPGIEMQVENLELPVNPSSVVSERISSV
Method: To evaluate in radioligand binding assays the activity of compounds of the invention, human recombinant serotonin (5-Hydroxytryptamine) 5-HT2C receptor expressed in Chinese hamster ovary (CHO-K1) cells (Wolf, W. A. and Schutz, J. S., J. Neurochem. 69:1449, 1997) in a modified Tris-HCl buffer (50 mM Tris-HCl, pH 7.4, 0.1% Ascorbic Acid, 10 μM Pargyline) was used. Compounds of the invention were incubated with 1 nM [^3H]Mesulergine for 60 min. at 25° C. Non-specific binding was estimated in the presence of 1 μM Mianserin. Receptor proteins were filtered and washed, the filters were then counted to determine [^3H]Mesulergine specifically bound. Compounds were screened at 1 μM or lower, using 1% DMSO as vehicle. Biochemical assay results are presented as the percent inhibition of specific binding in Table 6.

[2] = target: T2, human recombinant serotonin (5-Hydroxytryptamine) 5-HT2A receptor (Homo sapiens, UniProt P28223); assay: Serotonin 5-HT2A radioligand binding ([3H]Ketanserin); conditions: compound at 1 μM; read-out: Serotonin (1 μM) 5-HT2A, percent inhibition of specific binding
T2 construct: expressed in transfected cells; host or cells: CHO-K1 cells
Method: To evaluate in radioligand binding assays the activity of compounds of the invention, human recombinant serotonin (5-Hydroxytryptamine) 5-HT2A receptor expressed in Chinese hamster ovary (CHO-K1) cells (Bonhaus, D. W. et al. Br. J. Pharmacol. 115:622, 1995; Saucier, C. and Albert, P. R., J. Neurochem. 68:1998, 1997) in a 50 mM Tris-HCl buffer, pH 7.4, was used. Compounds of the invention were incubated with 0.5 nM [^3H]Ketanserin for 60 min. at 25° C. Non-specific binding was estimated in the presence of 1 μM Mianserin. Receptor proteins were filtered and washed, the filters were then counted to determine [^3H]Ketanserin specifically bound. Compounds were screened at 1 μM or lower, using 1% DMSO as vehicle. Biochemical assay results are presented as the percent inhibition of specific binding in Table 6.

[3] = target: T3, human recombinant histamine H1 receptor (Homo sapiens, UniProt P35367); assay: Histamine H1 radioligand binding ([3H]Pyrilamine); conditions: compound at 1 μM; read-out: Histamine Binding (1 μM) H1, percent inhibition of specific binding
T3 construct: expressed in transfected cells; host or cells: CHO cells
Method: To evaluate in radioligand binding assays the activity of compounds of the invention, human recombinant histamine H1 receptor expressed in Chinese hamster ovary (CHO) cells (De Backer, M. D. et al., Biochem. Biophys. Res. Comm. 197(3):1601, 1993) in a modified Tris-HCl buffer (50 mM Tris-HCl, pH 7.4, 2 mM MgCl2, 100 mM NaCl, 250 mM Sucrose) was used. Compounds of the invention were incubated with 1.2 nM [^3H]Pyrilamine for 180 min. at 25° C. Non-specific binding was estimated in the presence of 1 μM pyrilamine. Receptor proteins were filtered and washed, the filters were then counted to determine [^3H]Pyrilamine specifically bound. Compounds were screened at 1 μM or lower, using 1% DMSO as vehicle. Biochemical assay results are presented as the percent inhibition of specific binding in Table 6.

[4] = target: T4, human recombinant dopamine D2L receptor (Homo sapiens, UniProt P14416); assay: Dopamine D2L radioligand binding ([3H]Spiperone); conditions: compound at 1 μM; read-out: Dopamine (1 μM) D2L, percent inhibition of specific binding
T4 construct: expressed in transfected cells; host or cells: CHO cells
Method: To evaluate in radioligand binding assays the activity of compounds of the invention, human recombinant dopamine D2L receptor expressed in Chinese hamster ovary (CHO) cells (Grandy, D. K. et al. Proc. Natl. Acad. Sci. USA. 86:9762, 1989; Hayes, G. et al., Mol. Endocrinol. 6:920, 1992) in a modified Tris-HCl buffer (50 mM Tris-HCl, pH 7.4, 1.4 mM Ascorbic Acid, 0.001% BSA, 150 mM NaCl) was used. Compounds of the invention were incubated with 0.16 nM [^3H]Spiperone for 120 min. at 25° C. Non-specific binding was estimated in the presence of 10 μM Haloperidol. Receptor proteins were filtered and washed, the filters were then counted to determine [^3H]Spiperone specifically bound. Compounds were screened at 1 μM or lower, using 1% DMSO as vehicle. Biochemical assay results are presented as the percent inhibition of specific binding in Table 5.

[5] = target: T5, human recombinant histamine H2 receptor (Homo sapiens, UniProt P25021); assay: Histamine H2 radioligand binding ([125I]Aminopotentidine); conditions: compound at 1 μM; read-out: Histamine Binding (1 μM) H2, percent inhibition of specific binding
T5 construct: expressed in transfected cells; host or cells: CHO-K1 cells
Method: To evaluate in radioligand binding assays the activity of compounds of the invention, human recombinant histamine H2 receptor expressed in Chinese hamster ovary (CHO) K1 cells (Ruat, M., Proc. Natl. Acad. Sci. USA. 87(5):1658, 1990) in a 50 mM Phosphate buffer, pH 7.4 was used. Compounds of the invention were incubated with 0.1 nM [^125I]Aminopotentidine for 120 min. at 25° C. Non-specific binding was estimated in the presence of 3 μM Tiotidine. Receptor proteins were filtered and washed, the filters were then counted to determine [^125I]Aminopotentidine specifically bound. Compounds were screened at 1 μM or lower, using 1% DMSO as vehicle. Biochemical assay results are presented as the percent inhibition of specific binding in Table 6.

[6] = target: T6, human recombinant serotonin (5-Hydroxytryptamine) 5-HT6 receptor (Homo sapiens, UniProt P50406); assay: Serotonin 5-HT6 radioligand binding ([3H]LSD); conditions: compound at 1 μM; read-out: Serotonin (1 μM) 5-HT6, percent inhibition of specific binding
T6 construct: expressed in transfected cells; host or cells: human HeLa cells
Method: To evaluate in radioligand binding assays the activity of compounds of the invention, human recombinant serotonin (5-Hydroxytryptamine) 5-HT6 receptor expressed in human HeLa cells (Monsma, F. J. Jr. et al., Mol. Pharmacol. 43:320, 1993) in a modified Tris-HCl buffer (50 mM Tris-HCl, pH 7.4, 150 mM NaCl, 2 mM Ascorbic Acid, 0.001% BSA) was used. Compounds of the invention were incubated with 1.5 nM [3H]Lysergic acid diethylamide (LSD) for 120 min. at 37° C. Non-specific binding was estimated in the presence of 5 μM Serotonin (5-HT). Receptor proteins were filtered and washed, the filters were then counted to determine [3H]LSD specifically bound. Compounds were screened at 1 μM or lower, using 1% DMSO as vehicle. Biochemical assay results are presented as the percent inhibition of specific binding in Table 6.

T4 sequence (P14416 whole entry): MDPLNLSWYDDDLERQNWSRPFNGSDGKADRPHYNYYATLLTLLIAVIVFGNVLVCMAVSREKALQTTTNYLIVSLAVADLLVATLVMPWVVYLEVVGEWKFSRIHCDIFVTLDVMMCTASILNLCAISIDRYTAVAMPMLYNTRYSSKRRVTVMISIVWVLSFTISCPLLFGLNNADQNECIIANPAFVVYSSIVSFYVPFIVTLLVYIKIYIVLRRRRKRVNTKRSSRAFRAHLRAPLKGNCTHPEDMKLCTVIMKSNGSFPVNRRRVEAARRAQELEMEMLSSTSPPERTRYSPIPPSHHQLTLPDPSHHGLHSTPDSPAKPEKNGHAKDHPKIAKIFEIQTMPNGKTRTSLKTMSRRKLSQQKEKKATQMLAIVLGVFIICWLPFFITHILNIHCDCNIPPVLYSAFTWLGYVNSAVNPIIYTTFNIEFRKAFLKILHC
T3 sequence (P35367 whole entry): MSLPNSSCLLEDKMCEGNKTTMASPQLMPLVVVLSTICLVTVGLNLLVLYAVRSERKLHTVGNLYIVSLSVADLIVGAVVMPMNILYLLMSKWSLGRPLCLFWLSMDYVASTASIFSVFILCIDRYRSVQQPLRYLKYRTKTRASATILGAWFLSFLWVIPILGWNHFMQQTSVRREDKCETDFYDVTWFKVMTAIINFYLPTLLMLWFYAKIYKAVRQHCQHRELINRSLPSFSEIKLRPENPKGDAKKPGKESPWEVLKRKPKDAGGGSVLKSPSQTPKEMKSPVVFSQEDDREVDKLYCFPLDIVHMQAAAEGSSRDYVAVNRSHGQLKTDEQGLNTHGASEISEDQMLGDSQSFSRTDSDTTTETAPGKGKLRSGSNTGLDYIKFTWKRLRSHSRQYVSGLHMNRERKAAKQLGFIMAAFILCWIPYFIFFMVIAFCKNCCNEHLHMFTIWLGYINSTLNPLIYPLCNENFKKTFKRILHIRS
T2 sequence (P28223 whole entry): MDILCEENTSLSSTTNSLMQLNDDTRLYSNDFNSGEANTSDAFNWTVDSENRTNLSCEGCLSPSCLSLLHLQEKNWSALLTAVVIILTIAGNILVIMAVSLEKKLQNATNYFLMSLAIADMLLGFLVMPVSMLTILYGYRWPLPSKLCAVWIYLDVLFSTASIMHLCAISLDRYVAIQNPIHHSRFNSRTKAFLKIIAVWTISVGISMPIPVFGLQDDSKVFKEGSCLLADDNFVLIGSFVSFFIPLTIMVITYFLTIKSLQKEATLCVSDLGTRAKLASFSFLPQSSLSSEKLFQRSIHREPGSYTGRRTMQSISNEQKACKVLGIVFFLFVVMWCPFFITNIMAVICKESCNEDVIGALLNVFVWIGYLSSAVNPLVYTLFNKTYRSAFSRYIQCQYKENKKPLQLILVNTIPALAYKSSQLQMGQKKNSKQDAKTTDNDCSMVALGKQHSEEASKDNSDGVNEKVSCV
T6 sequence (P50406 whole entry): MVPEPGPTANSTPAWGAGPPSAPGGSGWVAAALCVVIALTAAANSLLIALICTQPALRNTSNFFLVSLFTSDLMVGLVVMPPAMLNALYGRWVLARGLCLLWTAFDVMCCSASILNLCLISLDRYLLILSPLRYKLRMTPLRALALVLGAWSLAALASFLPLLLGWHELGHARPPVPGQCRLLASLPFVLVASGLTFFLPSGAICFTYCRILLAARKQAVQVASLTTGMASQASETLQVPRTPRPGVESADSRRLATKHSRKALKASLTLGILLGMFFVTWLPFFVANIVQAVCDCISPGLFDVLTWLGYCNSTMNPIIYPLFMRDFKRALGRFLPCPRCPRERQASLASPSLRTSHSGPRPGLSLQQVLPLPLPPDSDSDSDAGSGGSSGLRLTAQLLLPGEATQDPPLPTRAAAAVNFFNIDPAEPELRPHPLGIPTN
T5 sequence (P25021 whole entry): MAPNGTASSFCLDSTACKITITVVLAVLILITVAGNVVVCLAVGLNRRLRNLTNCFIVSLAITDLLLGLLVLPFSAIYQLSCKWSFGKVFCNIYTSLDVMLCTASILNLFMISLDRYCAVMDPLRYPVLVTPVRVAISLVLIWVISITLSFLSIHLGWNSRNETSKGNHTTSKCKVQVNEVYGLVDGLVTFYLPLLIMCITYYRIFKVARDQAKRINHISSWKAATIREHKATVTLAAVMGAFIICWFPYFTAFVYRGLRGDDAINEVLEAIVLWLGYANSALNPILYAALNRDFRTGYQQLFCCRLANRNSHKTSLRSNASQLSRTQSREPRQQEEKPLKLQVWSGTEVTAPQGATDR

Work on `C/C(=C\n1c2c(c3cc(Cl)ccc31)CCN(C)CC2)c1ccc(Cl)c(Cl)c1` [Compound No. 154, (E)-9-chloro-6-(2-(3,4-dichlorophenyl)prop-1-enyl)-1,2,3,4,5,6-hexahydro-3-methylazepino[4,5-b]indole] yielded an inhibition at 1 µM [1] of 99%, an inhibition at 1 µM [2] of 100% and an inhibition at 1 µM [3] of 94%. For the same compound, the inhibition at 1 µM [4] was 33%, the inhibition at 1 µM [5] was 97% and the inhibition at 1 µM [6] was 92%.

With `C/C(=C\n1c2c(c3cc(Cl)ccc31)CCN(C)CC2)c1ccc(F)c(F)c1` [Compound No. 155, (E)-9-chloro-6-(2-(3,4-difluorophenyl)prop-1-enyl)-1,2,3,4,5,6-hexahydro-3-methylazepino[4,5-b]indole] the inhibition at 1 µM [1] was 98%, the inhibition at 1 µM [2] was 99% and the inhibition at 1 µM [3] was 93%. It also gave an inhibition at 1 µM [4] of 38%, an inhibition at 1 µM [5] of 92% and an inhibition at 1 µM [6] of 101%.

`COc1ccc(/C(C)=C/n2c3c(c4cc(Cl)ccc42)CCN(C)CC3)cc1F` [Compound No. 157, (E)-9-chloro-6-(2-(3-fluoro-4-methoxyphenyl)prop-1-enyl)-1,2,3,4,5,6-hexahydro-3-methylazepino[4,5-b]indole] showed an inhibition at 1 µM [1] of 101%, an inhibition at 1 µM [2] of 98% and an inhibition at 1 µM [3] of 68%. It also gave an inhibition at 1 µM [4] of 24%, an inhibition at 1 µM [5] of 93% and an inhibition at 1 µM [6] of 78%.

With `COc1ccc(/C(C)=C/n2c3c(c4cc(Cl)ccc42)CCN(C)CC3)cc1` [Compound No. 160, (E)-9-chloro-1,2,3,4,5,6-hexahydro-6-(2-(4-methoxyphenyl)prop-1-enyl)-3-methylazepino[4,5-b]indole] the inhibition at 1 µM [1] was 103%, the inhibition at 1 µM [2] was 94% and the inhibition at 1 µM [3] was 87%. It also gave an inhibition at 1 µM [4] of 17%, an inhibition at 1 µM [5] of 91% and an inhibition at 1 µM [6] of 99%.

`C/C(=C\n1c2c(c3cc(C)ccc31)CCN(C)CC2)c1ccc(Cl)c(Cl)c1` [Compound No. 176, (E)-6-(2-(3,4-dichlorophenyl)prop-1-enyl)-1,2,3,4,5,6-hexahydro-3,9-dimethylazepino[4,5-b]indole] showed an inhibition at 1 µM [1] of 99%, an inhibition at 1 µM [2] of 99% and an inhibition at 1 µM [3] of 82%. For the same compound, the inhibition at 1 µM [4] was 23%, the inhibition at 1 µM [5] was 95% and the inhibition at 1 µM [6] was 74%.

For `C/C(=C\n1c2c(c3cc(C)ccc31)CCN(C)CC2)c1ccc(F)c(F)c1` [Compound No. 177, (E)-6-(2-(3,4-difluorophenyl)prop-1-enyl)-1,2,3,4,5,6-hexahydro-3,9-dimethylazepino[4,5-b]indole], the inhibition at 1 µM [1] was 99%, the inhibition at 1 µM [2] was 98% and the inhibition at 1 µM [3] was 93%. It also gave an inhibition at 1 µM [4] of 25%, an inhibition at 1 µM [5] of 92% and an inhibition at 1 µM [6] of 96%.

`COc1ccc(/C(C)=C/n2c3c(c4cc(C)ccc42)CCN(C)CC3)cc1F` [Compound No. 179, (E)-6-(2-(3-fluoro-4-methoxyphenyl)prop-1-enyl)-1,2,3,4,5,6-hexahydro-3,9-dimethylazepino[4,5-b]indole] gave an inhibition at 1 µM [1] of 100%, an inhibition at 1 µM [2] of 98% and an inhibition at 1 µM [3] of 45%. It also gave an inhibition at 1 µM [4] of 23%, an inhibition at 1 µM [5] of 88% and an inhibition at 1 µM [6] of 77%.

`COc1ccc(/C(C)=C/n2c3c(c4cc(C)ccc42)CCN(C)CC3)cc1` [Compound No. 182, (E)-1,2,3,4,5,6-hexahydro-6-(2-(4-methoxyphenyl)prop-1-enyl)-3,9-dimethylazepino[4,5-b]indole] showed an inhibition at 1 µM [1] of 102%, an inhibition at 1 µM [2] of 101% and an inhibition at 1 µM [3] of 62%. For the same compound, the inhibition at 1 µM [4] was 19%, the inhibition at 1 µM [5] was 92% and the inhibition at 1 µM [6] was 96%.

`C/C(=C/n1c2c(c3cc(C)ccc31)CCN(C)CC2)c1ccccc1F` [Compound No. 240, (Z)-6-(2-(2-fluorophenyl)prop-1-enyl)-3,9-dimethyl-1,2,3,4,5,6-hexahydroazepino[4,5-b]indole] gave an inhibition at 1 µM [1] of 97%, an inhibition at 1 µM [2] of 98% and an inhibition at 1 µM [3] of 96%. The inhibition at 1 µM [4] was 57%, the inhibition at 1 µM [5] was 87% and the inhibition at 1 µM [6] was 102%.

`C/C(=C\n1c2c(c3cc(C)ccc31)CCN(C)CC2)c1ccccc1F` [Compound No. 241, (E)-6-(2-(2-fluorophenyl)prop-1-enyl)-3,9-dimethyl-1,2,3,4,5,6-hexahydroazepino[4,5-b]indole] was tested, and the inhibition at 1 µM [1] was 97%, the inhibition at 1 µM [2] was 100% and the inhibition at 1 µM [3] was 98%. The inhibition at 1 µM [4] was 37%, the inhibition at 1 µM [5] was 93% and the inhibition at 1 µM [6] was 100%.

`C/C(=C/n1c2c(c3cc(Cl)ccc31)CCN(C)CC2)c1ccccc1F` [Compound No. 242, (Z)-9-chloro-6-(2-(2-fluorophenyl)prop-1-enyl)-3-methyl-1,2,3,4,5,6-hexahydroazepino[4,5-b]indole] was tested, and the inhibition at 1 µM [1] was 94%, the inhibition at 1 µM [2] was 99% and the inhibition at 1 µM [3] was 100%. It also gave an inhibition at 1 µM [4] of 69%, an inhibition at 1 µM [5] of 98% and an inhibition at 1 µM [6] of 102%.
